Test [1] concerns the target T1, His-tagged recombinant Mpro^CoV-2 (Severe acute respiratory syndrome coronavirus 2, UniProt P0DTD1).
T1 construct: gene rep
Briefly: microscale thermophoresis binding check. Particulars: 50 nM labelled protein, PBS-T, 2.5% DMSO, 25 °C, 60-90 min incubation; tested concentration, not a Kd. From the text: microscale thermophoresis binding check on His-tagged recombinant Mpro^CoV-2
(In general: In MST a laser heats a spot of the sample, and binding alters the fluorescence response.)

Test [2] addresses T2, recombinant Mpro^CoV-2 (SARS-CoV-2 M^pro) (Severe acute respiratory syndrome coronavirus 2, UniProt P0DTD1).
T2 construct: gene rep
Briefly: FRET peptide cleavage assay (Dabcyl-KTSAVLQSGFRKME-Edans). The format is biochemical. From the text: FRET peptide cleavage assay (Dabcyl-KTSAVLQSGFRKME-Edans) on recombinant Mpro^CoV-2 (SARS-CoV-2 M^pro)

Take `NC(=O)CCCC(=O)N(CC(=O)NCc1ccccc1)[C@@H](CB(O)O)c1ccccc1` [3eb, (S)-(2-(5-Amino-N-(2-(benzylamino)-2-oxoethyl)-5-oxopentanamido)-2-phenylethyl)boronic Acid]: the “Ligand Concentration Displaying: / Binding” value in test [1] came to 3.1 µM.
For the compound `NC(=O)CCCC(=O)N(CC(=O)NCc1ccccc1)[C@H](CB(O)O)c1ccccc1` [3ea, (R)-(2-(5-Amino-N-(2-(benzylamino)-2-oxoethyl)-5-oxopentanamido)-2-phenylethyl)boronic Acid], the inhibition at 20 µM in test [2] amounted to 23.7%.
On the same count and under the same terms, to `NC(=O)CCC(=O)N(CC(=O)NC1CCCCC1)[C@H](CB(O)O)c1ccccc1` [3a, (R)-(2-(4-Amino-N-(2-(cyclohexylamino)-2-oxoethyl)-4-oxobutanamido)-2-phenylethyl)boronic Acid] belongs 23.4%.
On to `NC(=O)CCC(=O)N(CC(=O)NCc1ccccc1)[C@H](CB(O)O)c1ccccc1` [3c, (R)-(2-(4-Amino-N-(2-(benzylamino)-2-oxoethyl)-4-oxobutanamido)-2-phenylethyl)boronic Acid], for which, in test [1], the “Ligand Concentration Displaying: / Binding” value is recorded as 4 µM.
Take `CC(C)(C)NC(=O)CN(C(=O)CCCC(N)=O)[C@H](CB(O)O)c1ccccc1` [3f, (R)-(2-(5-Amino-N-(2-(tert-butylamino)-2-oxoethyl)-5-oxopentanamido)-2-phenylethyl)boronic Acid]: the “Ligand Concentration Displaying: / Binding” value in test [1] is listed as 1 µM.

The term inhibition denotes the relative decrease from the control value, in per cent.

The values are drawn from PMC10005264, “Computational Design, Synthesis, and Biophysical Evaluation of β-Amido Boronic Acids as SARS-CoV-2 M^pro Inhibitors” (Molecules, 2023).
